Experimental data taken from patent publication US20230372263A1, “METHODS AND COMPOSITIONS FOR TREATING AMYOTROPHIC LATERAL SCLEROSIS” (Amylyx Pharmaceuticals, Inc., priority 2022, published 2023).

Assays:
[1] = clinical; format: in vivo, human; conditions: human, in vivo; for AUC(0-t): AUC(0-last)
Procedure: (§1) • Protocol AMX3500: sparse sampling in 87 subjects with ALS. Approximately 2 samples are collected for each subject, 1 or 4 hours post dose following 12 and 24 weeks of treatment. • Protocol A35-002: rich sampling in 14 healthy adults. Approximately 21 samples are collected over 24 hours for each subject on two occasions, once following a high fat meal and the other under fasting conditions.
A total of 14 healthy subjects were enrolled in order to have no fewer than 12 subjects complete. A predefined mix of gender was selected.
Each study period followed the same study design (FIG. 1). Subjects were screened for inclusion in the study up to 28 days before dosing. Subjects were admitted to the clinical unit during Study Day −2 for Period 1 and Day −1 for Period 2 and were dosed in the morning of Day 1. On the night prior to Period 1 the subjects in the fasted/fed or fed/fasted sequence were fasted for a minimum of 10 h prior to dosing.
The solution was stirred until the powder was mostly dissolved.
Any departures from the intended regimen were recorded in the eCRFs. All dose administrations were performed in the study center under the supervision of appropriately trained staff.
Subjects were provided with a light snack and were then fasted from all food and drink (except water) until the following morning, when they were provided with a high-fat breakfast. The breakfast was consumed over a maximum period of 25 min, and dosing occurred 30 min after the start of breakfast. Subjects were encouraged to eat their meal evenly over the 25 min period. For this trial the subject was deemed compliant if they consumed >80% of the high-fat standard breakfast.
The subjects in the 24-h baseline and in the fasted condition Period remained fasted up to 4 h post-dose and were offered a standardized meal to be taken between 4.00 and 5.00 h post-dose. Subjects in the fed condition were fasted overnight and received a high-fat standard breakfast 30 minutes pre-dose and then remained fasted for 4.00 to 5.00 h post-dose when they received a standardized meal.
Venous blood samples were withdrawn via an indwelling cannula or by venipuncture according to the time schedule presented in Table 5 Table, Table 6, and Table 7.
Blood samples of approximately 4 mL were collected into 4 mL BD Vacutainer Plastic K2EDTA Tubes with Lavender Hemogard Closure, and was gently inverted approximately 8 times. The tubes were then immediately stored on ice and processed within 60 min of collection by centrifugation at 1500 g for 10 min at 2 to 8° C. The resultant plasma was separated equally into 2 aliquots and transferred to 2 mL appropriately labelled primary and backup polypropylene cryovials.
Actual elapsed time from dosing was to be used for the final plasma PK parameter calculations after database lock.

[2] = clinical; format: in vivo, human; conditions: human, in vivo; for concentration at 1 h / concentration at 4 h: both sexes
Procedure: • 1. […] Treatment is administered as one sachet daily for the initial 3 weeks and then increased if tolerated to one sachet twice daily. […] Sampling times are randomly assigned to occur at either 1 or 4 hours post-dose at the 12 week visit and the other time at the 24 week visit. • Treatment duration: 24 weeks • 2.
as §1
Subjects were advised to take the drug before a meal. […] Referred to as protocol 3500.
A study was carried out to examine plasma concentration data in various subgroups for the protocol AMX3500 Phase 2 study. This example summarizes plasma concentrations of TUDCA and 2 metabolites, also related acids, UDCA, the de-conjugated TUDCA metabolite, and GUDCA, the glycine conjugate of UDCA.
For each of the 2 treatment arms (treatment and placebo), subjects were further divided into 2 sample sequence groups for schedule of pharmacokinetic measurements: • 1. 1 hour post-dose for the Week 12 visit and 4 hours post-dose for the Week 24 visit • 2. 4 hours post-dose for the Week 12 visit and 1 hour post-dose for the Week 24 visit
Twenty-four distinct medication descriptions were identified as containing antibiotics. Dates of antibiotic use were compared to dates of visits and if the antibiotic use date range contained the visit date, then that visit was flagged for that subject's data for antibiotic use. […] These antibiotics could hypothetically be in a subject's body still if this event occurred. However, it was observed that only a small number of subjects took antibiotics near to visit dates but not overlapping visit dates. In other cases, subjects were taking antibiotics on the date of one visit but not the others. Some subjects are therefore in both categories of antibiotic use and nonuse, though no individual visits for a subject are counted in both categories at the same time.
Subjects whose race were recorded as “Black” or “African American” were evaluated according to the standard Glomerular Filtration Rate (eGFR) rating for that race. The other standard eGFR rating used, sometimes referred to as a standard for people who are White, was applied to subjects of all other races. These rates were analyzed as continuous in mL/min/1.73 m2 units and as the following categories: • 1. Less than 90 mL/min/1.73 m^2 • 2. Equal to or greater than 90 mL/min/1.73 m^2
Age was converted from a continuous variable to 2 categories: • 1. As old or older than 65 years old • 2. Younger than 65 years old
All boxplots boxes are bounded at the 25th and 75th percentile, with whiskers at 10th and 90th percentiles, outliers beyond that as points, the black line as median, and red line as mean.

[3] = Steady-state plasma concentration

## C[C@H](CCC(=O)NCC(=O)O)[C@H]1CC[C@H]2[C@@H]3[C@@H](O)C[C@@H]4C[C@H](O)CC[C@]4(C)[C@H]3CC[C@]12C [GUDCA, glycoursodeoxycholic acid]
[1]; both sexes, Tmax Median
  Tmax: 16 h
[1]; both sexes, po, Geometric Mean
  AUC(0-t): 4140 ng·h/mL
  Cmax: 381 ng/mL
[1]; both sexes, po
  Cmax: 381 ng/mL
[1]; both sexes, po, T1/2, Geometric Mean
  half-life: 765 min
[1]; both
  AUC(0-last) Ratio of adj geo means Fed/Fasted (GMR): 137.31%
  AUG(0-last): 5060 (88.2) ng.h/ml
  Cmax Ratio of adj geo means Fed/Fasted (GMR): 134.45%
  MR Cmax (metabolite to parent ratio): 0.571
  T1/2: 12.744 h
  increase in AUC(0-last), fed relative to fasted: ~37%
  peak exposure to metabolite as % of that for parent: approximately 51%
  time of maximum plasma concentrations (range): 6.00 to 20.00 h
  total exposure to metabolite based on AUC(0-last) as % of that for parent: approximately 95%
[1]; both, po
  AUC(0-last), Adj Geo Mean: 4200 ng·h/mL
  AUC(0-last), Max: 12000 ng·h/mL
  AUC(0-last), Median: 3400 ng·h/mL
  AUC(0-last), Min: 1840 ng·h/mL
  AUC(0-last), Ratio of adj geo means Fed/Fasted: 137.31%
  Cmax, Adj Geo Mean: 382 ng/mL
  Cmax, Max: 1420 ng/mL
  Cmax, Median: 353 ng/mL
  Cmax, Min: 143 ng/mL
  Cmax, Ratio of adj geo means Fed/Fasted: 134.45%
  Lambda-z, Geometric Mean: 0.0543 h⁻¹
  Lambda-z, Max: 0.0544 h⁻¹
  Lambda-z, Median: 0.0543 h⁻¹
  Lambda-z, Min: 0.0544 h⁻¹
  T1/2, Max: 12.74 h
  T1/2, Median: 12.744 h
  T1/2, Min: 12.74 h
  Tmax, Max: 20.00 h
  Tmax, Min: 6.00 h
[1]
  MR AUC(0-last): 1.056
[2]; Plasma Concentration, Mean
  concentration at 1 h: 1020 ng/mL
  concentration at 4 h: 1510 ng/mL
[2]; Plasma Concentration, Median
  concentration at 1 h: 773 ng/mL
  concentration at 4 h: 1500 ng/mL
[2]; [3]
  concentration at 1 h: 1070 ng/mL
  concentration at 4 h: 1320 ng/mL
[2]; both
  steady state reached by: ≤ 12 Week
[2]; both, 1 h
  Plasma Concentration, Median: 815.0 ng/mL
[2]; both, 4 h
  Plasma Concentration, Median: 1190.0 ng/mL
  Plasma Concentration, Min: 20.0 ng/mL
[2]
  accumulation in plasma after once- or twice-daily dosing: substantial accumulation
  effect of age on steady-state plasma concentration: no difference
  effect of mild renal insufficiency on steady-state plasma concentration: no discernible difference
  steady-state plasma concentrations versus endogenous levels: at least an order of magnitude higher than endogenous levels

## C[C@H](CCC(=O)O)[C@H]1CC[C@H]2[C@@H]3[C@@H](O)C[C@@H]4C[C@H](O)CC[C@]4(C)[C@H]3CC[C@]12C [UDCA, ursodeoxycholic acid]
[1]; both sexes, AUC(0-inf)
  AUC(0-inf): 11300 ng·h/mL
[1]; both sexes
  AUC(0-t): 5540 ng·h/mL
  Cmax: 639 ng/mL
[1]; both sexes, elimination half-lives (range)
  half-life: 181 to 455 min
[1]; both sexes, po
  Cmax: 639 ng/mL
[1]; both
  AUC(0-inf): 11300 ng·h/mL
  AUC(0-last) Ratio of adj geo means Fed/Fasted (GMR): 136.34%
  AUG(0-last): 5540 (72.5) ng.h/ml
  Cmax Ratio of adj geo means Fed/Fasted (GMR): 112.17%
  Tmax Median: 6.000 h
  increase in AUC(0-last), fed relative to fasted: ~36%
  increase in Cmax, fed relative to fasted: approximately 12%
  peak exposure to metabolite as % of that for parent: approximately 86%
  time of maximum plasma concentrations (range): 0.25 to 20.00 h
  total exposure to metabolite based on AUC(0-last) as % of that for parent: approximately 127%
[1]; both, po
  AUC(0-last), Adj Geo Mean: 5530 ng·h/mL
  AUC(0-last), Ratio of adj geo means Fed/Fasted: 136.34%
  Cmax, Adj Geo Mean: 635 ng/mL
  Cmax, Ratio of adj geo means Fed/Fasted: 112.17%
  Tmax Median: 6.000 h
[2]; Plasma Concentration, Mean
  concentration at 1 h: 1080 ng/mL
  concentration at 4 h: 1300 ng/mL
[2]; Plasma Concentration, Median
  concentration at 1 h: 592 ng/mL
  concentration at 4 h: 920 ng/mL
[2]; [3]
  concentration at 1 h: 910 ng/mL
  concentration at 4 h: 1170 ng/mL
[2]; both
  Plasma Concentration, Min: 20.0 ng/mL
  Plasma Concentration, Q1: 20.0 ng/mL
  steady state reached by: ≤ 12 Week
[2]; both, 1 h
  Plasma Concentration, Mean: 909.9 ng/mL
  Plasma Concentration, Median: 614.0 ng/mL
[2]; both, 4 h
  Plasma Concentration, Min: 20.0 ng/mL
[2]
  accumulation in plasma after once- or twice-daily dosing: substantial accumulation
  effect of age on steady-state plasma concentration: no difference
  effect of mild renal insufficiency on steady-state plasma concentration: no discernible difference
  steady-state plasma concentrations versus endogenous levels: at least an order of magnitude higher than endogenous levels
